This is an account of results in patent US6630507B1, “Cannabinoids as antioxidants and neuroprotectants” (The United States of America as represented by the …, priority 1998, dated 2003).

Data set [1] can be described thus: Cyclic voltametry (oxidation potentials). The class given is physicochemical. The conditions noted are these: for oxidation profile by cyclic voltametry: data not shown; for oxidation (electron donation) potential by cyclic voltametry: scan +0 to 1.8 V, 100 mV per second, acetonitrile. The method, then:
To investigate whether cannabinoids protect neurons against glutamate damage by reacting with ROS, the antioxidant properties of cannabidiol and other cannabinoids were assessed. Cyclic voltametry, a procedure that measures the ability of a compound to accept or donate electrons under a variable voltage potential, was used to measure the oxidation potentials of several natural and synthetic cannabinoids. These studies were performed with an EG&G Princeton Applied Research potentiostat/galvanostat (Model 273/PAR 270 software, NJ). The working electrode was a glassy carbon disk with a platinum counter electrode and silver/silver chloride reference. Tetraethylammonium chloride in acetonitrile (0.1 M) was used as an electrolyte. Cyclic voltametry scans were done from +0 to 1.8 V at scan rate of 100 mV per second. […] Anandamide, a cannabinoid receptor ligand without a cannabinoid like structure, was used as a non-responsive control. Each experiment was repeated twice with essentially the same results.

Data set [2] concerns cannabinoid receptor. The note with it: cited from earlier work.
The conditions of data set [3]: J. Pharmacol. Sci. 60:1433-1457 (1971); cited from earlier work.
A short description of data set [4]: Iron catalyzed dihydrorhodamine oxidation (Fenton reaction). The conditions noted are these: 50 μM dihydrorhodamine, 300 μM t-butyl hydroperoxide, 0.5 μM iron, 5 minutes.
The subject of data set [5] is neurons (AMPA/kainate receptor mediated toxicity). The data set is described as follows: AMPA and kainate receptor mediated toxicity in cultured neurons (LDH release). The class given is cell-based, Wistar rat. The conditions noted are these: for attenuation of glutamate toxicity, comparison of antioxidants: 100 μM glutamate, equimolar 5 μM antioxidant (FIG. 5B). In general terms: LDH leaks from cells whose membrane has failed.
Method: (§1) Primary neuronal cultures were prepared according to the method of Ventra et al. (J. Neurochem. 66:1752-1761, 1996). Fetuses were extracted by Cesarian section from a 17 day pregnant Wistar rat, and the feral brains were placed into phosphate buffered saline. The cortices were then dissected out, cut into small pieces and incubated with papain for nine minutes at 37° C. After this time the tissue was dissociated by passage through a fire polished Pasteur pipette, and the resultant cell suspension separated by centrifugation over a gradient consisting of 10 mg/ml bovine serum albumin and 10 mg/ml ovomucoid (a trypsin inhibitor) in Earls buffered salt solution. The pellet was then re-suspended in high glucose, phenol red free Dulbeco's modified Eagles medium containing 10% fetal bovine serum, 2 mM glutamine, 100 IU penicillin, and 100 μg/ml streptomycin (DMEM). Cells were counted, tested for vitality using the trypan blue exclusion test and seeded onto poly-D-lysine coated 24 multiwell plates. After 96 hours, 10 μM fluoro-deoxyuridine and 10 μM uridine were added to block glial cell growth.
Astrocyte conditioned DMEM was used throughout the AMPA/kainate toxicity procedure and following glutamate exposure in the NMDAr mediated toxicity protocol. Media was conditioned by 24 hour treatment over a confluent layer of type I astrocytes, prepared from two day old Wistar rat pups. Cortices were dissected, cut into small pieces, and enzymatically digested with 0.25% trypsin. Tissue was then dissociated by passage through a fire polished Pasteur pipette and the cell suspension plated into untreated 75 cm^2 T-flasks. After 24 hours the media was replaced and unattached cells removed. Once astrocytes achieved confluence, cells were divided into four flasks. Media for experiments was conditioned by a 24 hour exposure to these astrocytes, after which time it was frozen at −20° C. until use. Astrocyte cultures were used to condition DMEM for no longer than two months.
To examine AMPA and kainate receptor mediated toxicity, neurons were cultured for 7-13 days, then exposed to 100 μM glutamate and 50 μM cyclothiazide (used to prevent AMPA receptor desensitization). […] Specific AMPA and kainate receptor ligands were also used to separately examine the effects of cannabinoids on AMPA and kainate receptor mediated events. Fluorowillardiine (1.5 μM) was the AMPA agonist and 4-methyl glutamate (10 μM) was the kainate agonist used to investigate receptor mediated toxicity. When specifically examining kainate receptor activity, cyclothiazide was replaced with 0.15 mg/ml Concanavalin-A.

Data set [6] concerns NMDA receptor. The conditions noted are these: cited from earlier work.
The test system of data set [7] is cultured neurons (NMDAr mediated toxicity). The data set is described as follows: NMDA mediated toxicity in cultured neurons (LDH release). It counts as cell-based, Wistar rat. The note with it: 0.5 μg/ml, administered both during and post ischemia (FIG. 8).
Method: as §1
To examine NMDAr mediated toxicity, cultured neurons (cultured for 14-18 days) were exposed to 250 μM glutamate for 10 minutes in a magnesium free saline solution. […]

Turning to `CCCCCCC(C)(C)c1cc(O)c2c(c1)OC(C)(C)C1CCC(=O)CC21` (stereo not shown) [nabilone], in data set [1], the “oxidation profile by cyclic voltametry” value was “oxidation profiles similar to cannabidiol and THC”.
For `CCCCCCC(C)(C)c1cc(O)c2c(c1)OC(C)(C)[C@@H]1CC=C(CO)C[C@@H]21` [HU-210, 1,1 dimethylheptyl (DMH) homolog of [3R,4R]-7-hydroxy-Δ^6THC], the “cannabinomimetic activity relative to natural Δ^9 THC” value in data set [2] (U.S. Pat. No. 5,434,295) was “two orders of magnitude greater”. Also, the “side effects in subjects” value in data set [3] is “severe side effects, including fatigue, thirst, headache, and hypotension”.
On to tetrahydrocannabinol [THC], for which, in data set [4], the “prevention of dihydrorhodamine oxidation” value was “prevented dihydrorhodamine oxidation”. Besides, the “oxidation (electron donation) potential by cyclic voltametry” value (“oxidation (electron donation) potential” for short) in data set [1] was “donated electrons at a similar potential as the antioxidant BHT”. Further, the “neuroprotection in presence of cannabinoid receptor antagonist SR-141716A” value in data set [5] (5 μM compound plus SR-141716A (FIG. 2B)) is “Neither THC nor cannabidiol neuroprotection was affected”. In data set [5] (100 μM Glu, 5 μM compound (FIG. 2A)), the “neuroprotection in AMPA/kainate receptor toxicity assays” value was “similarly protective”.
Take `CCCCCCC(C)(C)c1cc(O)c2c(c1)OC(C)(C)[C@@H]1CC=C(CO)CC21` (single isomer, unassigned; (-)) [HU-211]: the “oxidation (electron donation) potential” value in data set [1] is “donated electrons at a similar potential as the antioxidant BHT”. In data set [6], the “activity at the NMDA receptor” value is on record as “retains NMDA receptor antagonist neuroprotective activity”. In addition, the “affinity to the cannabinoid receptors” value in data set [2] is reported as “low affinity”.
As to `Cc1c(C)c2c(c(C)c1O)CC[C@@](C)(CCC[C@H](C)CCC[C@H](C)CCCC(C)C)O2` [α-tocopherol], the “attenuation of glutamate toxicity, comparison of antioxidants” value in data set [5] is recorded as “attenuated glutamate toxicity”.
Regarding `CC(=O)Oc1cc(O[C@H](C)CCCc2ccccc2)cc2c1[C@@H]1C[C@H](O)CC[C@H]1[C@H](C)N2` [levanantrodol], in data set [1], the “oxidation profile by cyclic voltametry” value was “oxidation profiles similar to cannabidiol and THC”.
As for `Cc1cc(C(C)(C)C)c(O)c(C(C)(C)C)c1` [BHT], the “prevention of dihydrorhodamine oxidation” value in data set [4] is recorded as “prevented dihydrorhodamine oxidation”. Also, the “attenuation of glutamate toxicity, comparison of antioxidants” value in data set [5] was “attenuated glutamate toxicity”.
As to `CCCCC/C=C\C[C@H](O)/C=C/C=C\C/C=C\CCCC(=O)O` [Compound 12-HETE, 12-(s)-hydroxy-eicosatetraenoic acid], the “protection of cortical neurons from NMDAr toxicity” value in data set [7] was “best protection”.
Consider `CCCCC/C=C\C/C=C\C/C=C\C/C=C\CCCC(=O)NCCO` [Anandamide, arachidonyl ethanolamide], for which the “oxidation (electron donation) potential” value in data set [1] is reported as “did not undergo oxidation”.
